Entries after “also recorded” stand apart in the source; their conditions may differ.
What was measured:
[1] = test system: PINK1 knockout mice; assay: Dendrite length and mitochondrial content of substantia nigra dopamine neurons in PINK1 knockout mice; type: in vivo, mouse; conditions: intraperitoneal 1 mg/kg once every 2 days up to one week, vs untreated PINK1 knockout mice
Method: (§1) All experiments involving mice and rats were performed in accord with ARRIVE (Animal Research: Reporting of In Vivo Experiments) guidelines. Wild-type C57BL/6 and PINK1 knockout mice (B6.129S4-Pink1^tm1Slm/J), wild-type (Long Evans rats) and PINK1 knockout (LEH-PINK1^tm1sage.Park6) rats (SAGE labs through Horizon Discovery) were handled humanely and appropriately per the ARRIVE guidelines. All mice were housed at the Laboratory of Animal Resources (University of Nevada, Reno) in cages containing sufficient bedding, food (pellets), water, with sufficient social, nutritional and “enriched” environments, and maintained in HVAC-pressurized/sterile environment and in 12:12 hr light/dark cycles.
Wild-type (PINK1+/+) or PINK1 knockout (PINK1−/−) mice were treated with intraperitoneal injections of DMSO control or Forskolin (1 mg/kg body weight) once every 2 days for up to one week. At the end of each treatment, mice were sacrificed, and intracardially perfused with saline followed by 4% formaldehyde. Midbrain slices from wild-type and PINK1 KO mice were immunostained for mitochondria (TOM20) and tyrosine hydroxylase (TH, purple) to identify midbrain dopamine neurons and dendrite length.

[2] = test system: PINK1-KO rats; assay: Tapered beam balance test (coordination and balance) in PINK1-KO rats; type: in vivo, rat; conditions: intraperitoneal Forskolin 1.6 mg/kg with or without Noopept 0.05 μg/kg; 10 days; post vs pre-treatment; FIG. 10
Method: as §1
Wild-type (PINK1+/+) or PINK1 knockout (PINK1−/−) rats were treated with intraperitoneal injections of DMSO control or of Forskolin (1.6 mg/kg body weight) once every 2 days for two doses followed by co-administration with Noopept (0.05 μg/kg) for three more doses (once every two days) for up to a total treatment time of 10 days. […] In addition, muscle coordination and balance were assessed by subjecting the rats to cross a 1-meter, tapered beam balance (2 cm width) for up to three trials per animal. […]

[3] = test system: primary cortical neurons treated with rotenone; assay: Dendrite length analysis (MAP2B immunostaining); type: cell-based, mouse; conditions: after rotenone 65 nM; Forskolin/NKH477 6.5 μM-8.5 μM or 250 μM dbt-cAMP; FIG. 5
[4] = test system: Protein Kinase A (PKA); assay: PKA activity in cortex lysates after intranasal administration (ELISA-based colorimetric kit); type: in vivo, wild-type Long Evans Hooded rats; conditions: for blood brain barrier crossing: intranasal formulation, inferred from increased cortical PKA activity within 24 hrs; for PKA activity in the cortex: intranasal, 6 μl per nostril, 24 hr, 2.5 and 10 μM in cerebrospinal fluid, vs 0 μM, FIG. 14
Method: PKA activity was measured in cortex of wild-type Long Evans Hooded rats by determining the level of PKA-mediated substrate phosphorylation by using an ELISA-based colorimetric PKA activity kit per manufacturer's recommendations (Enzo Life Sciences; ADI-EKS-390A) with the following minor modifications. To determine PKA-specific activity, lysates form the cortex were treated with H89, a pharmacological inhibitor of PKA at 10 μM for 5 min, and the H89-resistant kinase activity was subtracted from total kinase activity of untreated tissue lysates.
Combine 1.68 grams K2HPO4 ([…]), 5.28 grams KH2PO4 ([…]), and 81.8 grams NaCl ([…]). Add distilled H2O up to 1 L total volume. Autoclave and sterilize solution. Adjust the pH of the solution to 7.4 using a pH meter. Add 1 gram sodium benzoate (0.1%) or propyl benzoic acid. Reconstitute up to 2 mg of lyophilized, sterile, pharmaceutical grade water-soluble Forskolin analogue, for example water soluble analogue NKH477, in 1 mL of PBS by using a 1 mL syringe. Transfer the reconstituted Forskolin onto the receiving chamber of an intranasal atomizer (NAD nasal) prior to intranasal delivery.
(*:p<0.05 vs. 0 μM, One-Way ANOVA, Tukey's test, N=3 rats per group).

[5] = test system: PINK1-KO rats; assay: Tyrosine hydroxylase immunofluorescence in midbrain slices of PINK1-KO rats; type: in vivo, rat; conditions: female PINK1-KO rats; intraperitoneal Forskolin 1.6 mg/kg with or without Noopept 0.05 μg/kg; FIG. 13
Method: Wild-type (PINK1+/+) or PINK1 knockout (PINK1−/−) rats were treated with intraperitoneal injections of DMSO control or of Forskolin (1.6 mg/kg body weight) once every 2 days for two doses followed by co-administration with Noopept (0.05 μg/kg) for three more doses (once every two days) for up to a total treatment time of 10 days. At the end of each treatment, a battery of motor tests were performed in vehicle-treated or WT and PINK1-KO rats treated with compounds to analyze for muscle strength in hind legs by using a grip strength analyzer. In addition, muscle coordination and balance were assessed by subjecting the rats to cross a 1-meter, tapered beam balance (2 cm width) for up to three trials per animal. Another group of wild-type and PINK1-KO rats were sacrificed, and intracardially perfused with saline followed by 4% formaldehyde. Midbrain slices from wild-type and PINK1-KO rats were immunostained for tyrosine hydroxylase (TH, purple) to identify midbrain dopamine neurons. […] (*:p<0.05 vs. WT/vehicle, **:p<0.05 vs. PINK1-KO/vehicle, One-Way ANOVA, Tukey's test, N=4-7 rats per group).

[6] = test system: primary cortical neurons treated with rotenone; assay: Image-based analysis of mitochondrial content in dendrites (MAP2B/TOM20 immunostaining); type: cell-based, mouse; conditions: after rotenone 65 nM; Forskolin/NKH477 6.5 μM-8.5 μM or 250 μM dbt-cAMP; FIG. 4
Excerpt: The rotenone-treated neurons were also studied by image-based analyses of mitochondrial content in dendrites from primary cortical neurons immunostained for dendrites (MAP2B) and for mitochondria (TOM20).

C=C[C@@]1(C)CC(=O)[C@]2(O)[C@@]3(C)[C@@H](O)CCC(C)(C)[C@@H]3[C@H](O)[C@H](OC(C)=O)[C@@]2(C)O1 [Forskolin]
dendrite length of substantia nigra dopamine neurons ([1]; FIG. 6A): significantly increased; also recorded: reverses the loss of dendrites | mitochondrial content in dendrites of substantia nigra dopamine neurons ([1]; FIG. 6B): significantly increased; also recorded: reverses the loss of dendrites and mitochondria in dendrites | coordination and balance (motor score, falls and slips per crossing) [2]: can reverse the loss of coordination and balance; also recorded: can reverse the loss of balance and coordination | dendrite arbors (total dendrite length per neuron) [3]: reversed the loss of dendrites; also recorded: completely blocked; also recorded: significantly restored | blood brain barrier crossing [4]: can efficiently cross the blood brain barrier; also recorded: efficiently crosses the blood brain barrier | blood brain barrier crossing ([4]; listed as forskolin): crosses the blood brain barrier efficiently | PKA activity in the cortex [4]: significantly increases PKA activity | PKA activity in the cortex ([4]; listed as forskolin): enhances neuroprotective PKA activity | substantia nigra/midbrain dopamine neurons (integrated density of TH immunofluorescence) [5]: completely reverses the loss of midbrain dopamine neurons; also recorded: significantly reversed neurodegeneration | mitochondrial content in dendrites (% of dendrites occupied by mitochondria) [6]: reversed the loss of mitochondria within dendrites; also recorded: completely blocked; also recorded: significantly restored

— patent US11612583B2, “Disease modifying methods for treating neurodegenerative diseases using nootropic agents” (priority 2018, dated 2023)
